Results on five compounds are retold here after patent publication US6552011B1, “(Androst-5-en-17beta -yl)alkyl sulfoxides and sulfones and their use for control of fertility” (Akzo Nobel NV, priority 1999, dated 2003).

SMILES strings stand for the structures.

What all share (assay type): cell-based, mice (B6D2-F1, strain C57BL×DBA)
For experiment [1], the system named is denuded oocytes (DO). Description: Oocyte assay, antagonistic testing, DO assay (inhibition of FF-Mas induced oocyte maturation). The following applies: FF-Mas 5 μM, compound 5 μM, hypoxanthine 4 mM medium, 22 hours culture, number in brackets = control (FF-Mas alone). As to the method:
(§1) The meiosis inhibiting activity of the (androst-5-en-17β-yl)alkyl sulfoxides and sulfones of the invention is measured in an in vitro oocyte assay as the ability to inhibit the FF-Mas or 22S-hydroxy-FF-Mas induced maturation, in hypoxanthine media, in denuded oocytes (DO) or cumulus enclosed oocytes (CEO), respectively. The compounds can be used to inhibit meiosis in both male and female and thus can be used as contraceptive agents.
(§2) Natural resumption of meiosis can be mimicked in vitro by addition of FF-Mas or other agonists to the culture medium containing hypoxanthine. The antagonistic activity of the compounds is measured as the ability to inhibit the FF-Mas or 22S-hydroxy-FF-Mas induced oocyte maturation in denuded oocytes or cumulus enclosed oocytes, respectively, in vitro.
(§3) Ovaries are obtained from immature female mice (B6D2-F1, strain C57BL×DBA). At the age of 19, 20 or 21 days the mice are injected subcutaneously with a single dose of 20 IU follicle stimulating hormone (Humegon, Organon, The Netherlands) in saline.
Forty-eight hours after follicle stimulating hormone injection mice are killed by cervical dislocation. The ovaries are removed, freed of extraneous tissue and placed in a multidish containing 0.5 ml preparation medium at 37° C. L-15 Leibovitz medium (Gibco, pH 7.3±0.1) supplemented with bovine serum albumin (3 mg.ml^−1), L-glutamine (0.23 mM), sodium pyruvate (2 mM) and hypoxanthine (4 mM) is used as preparation medium. […]
(§4) The oocyte assay is performed in 3 blocks, each block represents the ovaries of one mouse (randomized block design). […] At t=0 the number of oocytes with intact germinal vesicles (GV) or germinal vesicle break-down (GVBD) is counted under an inverted microscope with differential interference contrast equipment. […] At the end of the culture period the number of oocytes with GV or GVBD per group is counted. For statistical analysis the percentage germinal vesicle breakdown is calculated for each group in one block. […]

Experiment [2] has as its system cumulus enclosed oocytes (CEO). Description: Oocyte assay, antagonistic testing, CEO assay (inhibition of 22S-hydroxy-FF-Mas induced oocyte maturation). The following applies: 22S-hydroxy-FF-Mas 5 μM, hypoxanthine 4 mM medium, 22 hours culture, number in brackets = control (22S-hydroxy-FF-Mas alone). As to the method: as §1, §2, §3
Forty-eight hours after follicle stimulating hormone injection mice are killed by cervical dislocation. The ovaries are removed, freed of extraneous tissue and placed in a multidish containing 0.5 ml preparation medium at 37° C. […]
as §4, with “block. These percentages are subjected to arcsin transformation, and differences between control and test compounds are analyzed by an ANOVA test for a randomized block design.” for “block.”

The subject of experiment [3] is denuded oocytes (DO). Description: Oocyte assay, agonistic testing, DO assay (overcoming hypoxanthine maintained meiotic arrest). The following applies: hypoxanthine 4 mM medium, 22 hours culture, number in brackets = control.
Source text: Oocytes arrested in meiosis contain diffused chromosomes which are surrounded by an intact nuclear envelope known as the germinal vesicle (GV). Upon reinitiation of meiosis by the midcycle gonadotropin surge, the chromosomes recondense and the GV breaks down (GVBD). In vivo, the oocyte is exposed to hypoxanthine (HX), which maintains the oocyte arrested in the meiotic prophase. This meiotic arrest can be mimicked in vitro by addition of hypoxanthine to the culture medium. The agonistic activity of meiosis activating substances is measured as the ability to overcome the hypoxanthine maintained meiotic arrest in denuded oocytes (DO) or cumulus enclosed oocytes (CEO), i.e. as the ability to induce meiotic resumption in vitro.
as §3
Forty-eight hours after follicle stimulating hormone injection mice are killed by cervical dislocation. The ovaries are removed, freed of extraneous tissue and placed in a multidish containing 0.5 ml preparation medium at 37° C. L-15 Leibovitz medium (Gibco, pH 7.3±0.1) supplemented with bovine serum albumin (3 mg.ml^−1), L-glutamine (0.23 mM), sodium pyruvate (2 mM) and hypoxanthine (4 mM) is used as preparation medium. The antral follicles of the ovaries are punctured under a dissecting microscope using two 27-gauge needles attached to two 1 ml syringes. Cumulus enclosed oocytes (CEO) of uniform size are selected with a mouth-controlled pipette and rinsed in 0,5 ml fresh preparation medium. About 20 CEO are obtained from one ovary.
Oocytes freed from cumulus cells, i.e. denuded oocytes (DO), are obtained by gently flushing CEO through a fine-bore mouth-controlled pipette. DO were collected in fresh MEM alpha medium, containing bovine serum albumin (3 mg.ml^−1), L-glutamine (0.23 mM), sodium pyruvate (2 mM) and hypoxanthine (4 mM), and washed twice before transfer to the test medium.
as §4, with “block. These percentages are subjected to arcsin transformation, and differences between control and test compounds are analyzed by an ANOVA test for a randomized block design.” for “block.”

Consider `CC(C)CC[C@@H](O)[C@@H](C)[C@H]1CC[C@H]2[C@@H]3CC=C4C[C@@H](O)CC[C@]4(C)[C@H]3CC[C@]12C` [22R-hydroxycholesterol, (3β,20S,22R)-cholest-5-en-3-ol, reference compound], for which, in the experiment with denuded oocytes (DO) [1], the “% GVBD DO assay exp.(control)” value is 38(89) %. For the same compound, in experiment [2] (compound 2.5 μM), the “% GVBD CEO assay exp.(control)” value is listed as 52(89)^4%.
In the case of `CC(C)=CC[C@H](O)[C@@H](C)[C@H]1CC=C2C3=C(CC[C@@]21C)[C@@]1(C)CC[C@H](O)C(C)(C)[C@@H]1CC3` [22S-hydroxy-FF-Mas, (3β,5α,20S,22S)-4,4-dimethylcholesta-8,14,24-triene-3,22-diol, reference compound], the “% GVBD DO assay exp.(control)” value with denuded oocytes (DO) [3] (compound 5 μM) was 97(2) %.
In the case of `C=C(C)C[S@+]([O-])C[C@@H](C)[C@H]1CC[C@H]2[C@@H]3CC=C4C(C)(C)[C@@H](O)CC[C@]4(C)[C@H]3CC[C@]12C` [Example 1a, [3β,20S,(21R)]-4,4,20-Trimethyl-21-[(2-methyl-2-propenyl)sulfinyl]pregn-5-en-3-ol], the “% GVBD DO assay exp.(control)” value in the experiment with denuded oocytes (DO) [3] (compound 5 μM) is listed as 3(12) %; in the experiment on denuded oocytes (DO) [1], 14(84) %. Moreover, the “% GVBD CEO assay exp.(control)” value in experiment [2] (compound 1.0 μM) is 9(96)^3%.
`C[C@H](C[S@@+]([O-])c1ccccc1)[C@H]1CC[C@H]2[C@@H]3CC=C4C(C)(C)[C@@H](O)CC[C@]4(C)[C@H]3CC[C@]12C` [Example 3a, [3β,20S,(21R)]-4,4,20-Trimethyl-21-(phenylsulfinyl)pregn-5-en-3-ol]: the “% GVBD DO assay exp.(control)” value with denuded oocytes (DO) [3] (compound 5 μM) was 4(12) %; in the experiment with denuded oocytes (DO) [1], 4(84) %. Also, the “% GVBD CEO assay exp.(control)” value in experiment [2] (compound 1.0 μM) is listed as 34(96)^3%.
On to `CC(C)=CCC[C@@H](C)[C@H]1CC=C2C3=C(CC[C@@]21C)[C@@]1(C)CC[C@H](O)C(C)(C)[C@@H]1CC3` [FF-Mas, (3β,5α,20R)-4,4-dimethylcholesta-8,14,24-trien-3-ol, reference compound], for which the “% GVBD DO assay exp.(control)” value in the experiment with denuded oocytes (DO) [3] (compound 10 μM) is given as 84(7) %.
